In the supplement of paper PMC10307832:

How the values were obtained:
Experiment in all cases: relative viability (nuclei count vs DMSO), 5 days (fraction); higher = more cells survive
kb NB 142-70 + OSI-027 = compound: C1CSC2=C(C(=O)N1)SC3=C2C=C(C=C3)O [kb NB 142-70] + COc1cccc2cc(-c3nc([C@H]4CC[C@H](C(=O)O)CC4)n4ncnc(N)c34)[nH]c12 [OSI-027] (partner 0.5 µM)
Procedure, shortened: (§1)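 Values are medians from duplicate plates. Each reflects relative viability, defined as the nuclei count of treated wells over that of vehicle wells. Lung cancer cell lines in 1536-well plates were pin-tool dosed one day after seeding with one drug alone or with a fixed anchor-drug dose plus five library-drug doses (not always all listed) in √10 steps, then fixed, stained and imaged at 4× after 5 days.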

[1] = compound: C1CSC2=C(C(=O)N1)SC3=C2C=C(C=C3)O [kb NB 142-70] + C[C@@H](Oc1cc(-c2cnn(C3CCNCC3)c2)cnc1N)c1c(Cl)ccc(F)c1Cl [Crizotinib] (partner 1 µM)
Procedure, shortened: as §1

kb NB 142-70 + Dasatinib = compound: C1CSC2=C(C(=O)N1)SC3=C2C=C(C=C3)O [kb NB 142-70] + Cc1nc(Nc2ncc(C(=O)Nc3c(C)cccc3Cl)s2)cc(N2CCN(CCO)CC2)n1 [Dasatinib] (partner 0.075 µM)
Procedure, shortened: as §1

[2] = compound: NCC(=O)Nc1ccc(-n2nc(C(F)(F)F)cc2-c2ccc3c(ccc4ccccc43)c2)cc1 + CC(=O)Nc1cccc(-n2c(=O)n(C3CC3)c(=O)c3c(Nc4ccc(I)cc4F)n(C)c(=O)c(C)c32)c1 [Trametinib] (partner 0.02 µM)
Procedure, shortened: as §1

[3] = compound: NCC(=O)Nc1ccc(-n2nc(C(F)(F)F)cc2-c2ccc3c(ccc4ccccc43)c2)cc1 + COc1cc2c(Oc3ccc(NC(=O)C4(C(=O)Nc5ccc(F)cc5)CC4)cc3F)ccnc2cc1OCCCN1CCOCC1 [Foretinib] (partner 0.25 µM)
Procedure, shortened: as §1

Row | Cell Line | relative viability (kb NB 142-70 + OSI-027; first compound 0.1 µM) | relative viability (kb NB 142-70 + OSI-027; first compound 1 µM) | relative viability (kb NB 142-70 + OSI-027; first compound 3.162 µM) | relative viability ([1]; first compound 0.1 µM) | relative viability ([1]; first compound 1 µM) | relative viability ([1]; first compound 3.162 µM) | relative viability (kb NB 142-70 + Dasatinib; first compound 0.1 µM) | relative viability (kb NB 142-70 + Dasatinib; first compound 1 µM) | relative viability (kb NB 142-70 + Dasatinib; first compound 3.162 µM) | relative viability ([2]; first compound 0.02 µM) | relative viability ([2]; first compound 0.06325 µM) | relative viability ([2]; first compound 0.2 µM) | relative viability ([2]; first compound 0.6325 µM) | relative viability ([2]; first compound 2 µM) | relative viability ([3]; first compound 0.02 µM) | relative viability ([3]; first compound 0.06325 µM) | relative viability ([3]; first compound 0.2 µM) | relative viability ([3]; first compound 0.6325 µM) | relative viability ([3]; first compound 2 µM)
1 | 201T | 0.723 | 0.714 | 0.653 | 0.989 | 1.07 | 1.03 | 0.596 | 0.47 | 0.565 | 0.692 | 0.717 | 0.747 | 0.725 | 0.696 | 1.12 | 1.2 | 1.17 | 1.1 | 1.15
2 | NCI-H2170 | 0.699 | 0.694 | 0.588 | 1.21 | 1.22 | 1.04 | 0.498 | 0.475 | 0.4 | 0.89 | 0.91 | 0.989 | 0.884 | 0.912 | 0.995 | 0.975 | 1.04 | 0.985 | 1.02
3 | NCI-H460 | 0.677 | 0.576 | 0.315 | 0.766 | 0.801 | 0.326 | 0.504 | 0.422 | 0.336 | 0.19 | 0.175 | 0.165 | 0.145 | 0.18 | 1.04 | 1.06 | 1.09 | 0.981 | 1.03
4 | NCI-H661 | 0.723 | 0.717 | 0.61 | 1.05 | 0.969 | 1.22 | 0.916 | 0.89 | 0.796 | 0.547 | 0.559 | 0.56 | 0.644 | 0.588 | 0.985 | 0.985 | 1.04 | 0.974 | 1.07
5 | HCC-15 | 0.698 | 0.703 | 0.516 | 0.773 | 0.85 | 0.813 | 0.638 | 0.574 | 0.459 | 0.386 | 0.416 | 0.447 | 0.369 | 0.363 | 1.07 | 1.04 | 1.08 | 1.1 | 1.07
6 | LCLC-103H | 0.493 | 0.452 | 0.454 | 0.997 | 1.12 | 1.03 | 0.459 | 0.521 | 0.505 | 0.67 | 0.688 | 0.694 | 0.67 | 0.618 | 0.703 | 0.71 | 0.938 | 0.754 | 0.736
7 | NCI-H441 | 0.556 | 0.58 | 0.277 | 0.958 | 0.64 | 0.433 | 0.634 | 0.575 | 0.366 | 0.394 | 0.436 | 0.507 | 0.523 | 0.555 | 0.91 | 1.03 | 0.879 | 0.85 | 0.97
8 | EPLC-272H | 0.278 | 0.243 | 0.187 | 0.851 | 1.03 | 0.428 | 0.417 | 0.34 | 0.149 | 0.269 | 0.297 | 0.305 | 0.299 | 0.303 | 0.686 | 0.688 | 0.752 | 0.581 | 0.79
